Test results: patent publication US6551583B2, “Antibiofouling method and apparatus for optical sensors” (Airak, Inc,, priority 2000, dated 2003)

Assay: effectiveness of biocides for optrode protection against biofouling
Conditions: ppb concentrations

For `N#Cc1c(Cl)c(Cl)c(Cl)c(C#N)c1Cl` [chlorothalonil], the “biocide effectiveness (optrode protection)” value was “effective even at ppb concentrations”.
